Source: patent US6921775B2, “Methods for modulating brain damage” (Children's Medical Center Corporation, priority 2001, dated 2005)

Tested on: AMPA receptors in cerebral white matter
Assay: Intracerebral AMPA injection white matter injury
Type: in vivo
Method: The methods used in this example are described in Follett et al. (2000) J. Neurosci. 20:9235-9241, incorporated by reference herein.
NBQX attenuation of the selective white matter injury after hypoxia/ischemia implicated GluR-mediated toxicity as an important mechanism of injury in immature OLs. To confirm a relationship between the activation of AMPA receptors in cerebral white matter and the vulnerability to injury, AMPA was injected directly into immature white matter. […] Minimal to no injury was present in vehicle-injected controls (M K801 alone; n=7) at the same age (t test, p<0.001).
To determine whether AMPA toxicity was age dependent, lesion size after intracerebral AMPA injections at P4, P7, and P11 was compared.

Question: Which “white matter injury after intracerebral injection” value (P7 rat pups, 5 nmol of AMPA plus 5 nmol of MK-801, vs MK-801 alone p<0.001) does the source give for Cc1o[nH]c(=O)c1CC(N)C(=O)O (centres unmarked) [AMPA] here?
Answer: produced white matter injury

Question: And the “white matter injury (pericallosal lesion size) after injection at P4 and P11 compared with P7” value (intracerebral AMPA, one-way ANOVA p<0.001)?
Answer: significantly less white matter injury
